The results in this text go back to patent US20070015232A1, “Mitotic index assay” (DiscoveRx, Inc., priority 2005, published 2007).

Experiment [1] has as its target cyto-EA (β-galactosidase enzyme acceptor fragment localized in the cytoplasm) (E. coli) [β-galactosidase: P00722]. The experiment is described as follows: cell-based or functional assay.
The target in experiment [2] is EA-NLS/NRS (β-galactosidase enzyme acceptor fragment fused to a nuclear localization signal / nuclear retention signal) (E. coli) [β-galactosidase: P00722]. Put plainly: cell-based or functional assay.
Experiment [3] concerns C2C12+EA-NLS/NRS+GR-PL cells. The experiment is described as follows: EFC mitotic index assay, C2C12+EA-NLS/NRS+GR-PL cells (Stanford GR cells). The class given is cell-based, mouse. To be noted: 24 hours, 30 min read.
For experiment [4], the system named is CHO-K1+EA-NLS/NRS+GR-PL cells. Put plainly: EFC mitotic index assay, CHO-K1+EA-NLS/NRS+GR-PL cells, antibiotic selected pool (DX M19/GR pool). The experiment is classed as cell-based. To be noted: 24 hours, 30 min read.
The test system of experiment [5] is Clone #69 CHO-K1 cells expressing EA-NLS/NRS and GR-PL. Put plainly: EFC assay in stable clone #69 (CHO-K1, EA-NLS/NRS and GR-PL) with or without RU486 pre-incubation. The class given is cell-based. Particulars: for Avg luminescence readout / R1 luminescence readout / R3 luminescence readout / Ratio (Avg vs 0 conc): overnight, vehicle pre-incubation. The protocol: In the next experiment, a stable clone (clone #69) expressing both EA-NLS/NRS and GR-PL was isolated in a CHO-K1 parental background. […] 20,000 cells/well were plated in a 96 well white coming multi-well plate and allowed to adhere overnight. The next day, the cells were washed two times with serum free F12 media and 100 μL of serum free F12 media was added to the cells. The cells were then incubated in either vehicle (ethanol-1% final concentration) or 10 μM RU486 for one hour. To the cells, three different concentrations of dexamethasone (300, 100, 30 μM) (an agonist of GR), RU486 (30, 10, 3.33 μM), colchicine (1, 0.3, 0.1 μ/mL) or nocodazole (10, 3.33, 1.11 μg/mL) were added and the incubation went overnight at 37° C. with 5% CO2. The next day, the media was aspirated off and 100 μL of Tropix/ABI Gal screen cell lysis/substrate reagent was added to the cells. The plate was read on the Victor II reader at 30, 60 and 120 minutes.

For experiment [6], the system named is CHO-K1+cyto-EA cells transfected with cJUN-PL. The experiment is described as follows: EFC mitotic index assay, CHO-K1+cyto-EA cells transiently transfected with cJUN-PL. The experiment is classed as cell-based. Particulars: for Avg luminescence readout / R1 luminescence readout / R3 luminescence readout / Ratio (Avg vs 0 conc): overnight.
Where [7] appears, read: High conc (nocodazole 10 μg/mL, colchicine 1 μ/mL, dexamethasone 300 μM, RU486 30 μM).
The mark [8] stands for this setting: Low conc (nocodazole 1.11 μg/mL, colchicine 0.1 μ/mL, dexamethasone 30 μM, RU486 3.33 μM).
Where [9] appears, read: Med conc (nocodazole 3.33 μg/mL, colchicine 0.3 μ/mL, dexamethasone 100 μM, RU486 10 μM).

“cJUN-PL (c-Jun fused to the PL β-galactosidase enzyme donor fragment)” displayed an EFC activity, CHO-K1 cyto-EA cells transiently transfected with cJUN-PL, nocodazole and colchicine in experiment [1] of 2.1 fold.
On to “GR-PL (human glucocorticoid receptor fused to PL, a 55 mer α-fragment of β-galactosidase) (from UniProt P04150 1-777)”, for which, in experiment [2], the EFC (β-galactosidase chemiluminescence after lysis), CHO-K1 pool, Taxol, nocodazole and colchicine overnight is less than 4 fold; the EFC activity (β-galactosidase chemiluminescence after lysis), C2C12 cells, nocodazole 1-10 µg/mL came out at 2 fold; the EFC activity, CHO-K1 clone #69, nocodazole and colchicine fell in the range of 3 to 4 fold.
As for `COc1cc2c(c(OC)c1OC)-c1ccc(OC)c(=O)cc1[C@@H](NC(C)=O)CC2` [Colchicine, colchicine], the Avg luminescence readout in experiment [3] (0.03 μM) amounted to 11782; in experiment [3] (0.1 μM) it was 9170; in experiment [3] (0.3 μM) it was 11243; in experiment [3] (1 μM), 12083; in experiment [4] (0.03 μM) it was 3412; in experiment [4] (0.1 μM), 5814. The Avg luminescence readout was 7251 in experiment [4] (0.3 μM); 11843 in experiment [4] (1 μM); 1623 in experiment [5] (setting [7]); 1136 in experiment [5] (setting [8]); 1241 in experiment [5] (setting [9]); 8548 in experiment [6] (0.3 μg/mL). Further, the Avg luminescence readout in experiment [6] (1.0 μg/mL) is recorded as 10762; in experiment [6] (3.0 μg/mL), 13255; in experiment [6] (10.0 μg/mL), 14719. The R1 luminescence readout in experiment [3] (0.03 μM) came to 10442; in experiment [3] (0.1 μM) it was 6763; in experiment [3] (0.3 μM), 11132; in experiment [3] (1 μM), 11891; in experiment [4] (0.03 μM) it was 3128; in experiment [4] (0.1 μM) it was 6507. Also, the R1 luminescence readout in experiment [4] (0.3 μM) was 7078; in experiment [4] (1 μM), 10671; in experiment [5] (setting [7]), 1850; in experiment [5] (setting [8]), 1274; in experiment [5] (setting [9]) it was 1345; in experiment [6] (0.3 μg/mL) it was 7491. The R1 luminescence readout stood at 11290 in experiment [6] (1.0 μg/mL), 12822 in experiment [6] (3.0 μg/mL) and 13772 in experiment [6] (10.0 μg/mL). The R3 luminescence readout is on record as 12456 in experiment [3] (0.03 μM); 10724 in experiment [3] (0.1 μM); 12160 in experiment [3] (0.3 μM); 11866 in experiment [3] (1 μM); 3727 in experiment [4] (0.03 μM); 4886 in experiment [4] (0.1 μM). Further, the R3 luminescence readout was determined as 7341 in experiment [4] (0.3 μM); 13178 in experiment [4] (1 μM); 1323 in experiment [5] (setting [7]); 1007 in experiment [5] (setting [8]); 1073 in experiment [5] (setting [9]); 9730 in experiment [6] (0.3 μg/mL). For the same molecule, the R3 luminescence readout in experiment [6] (1.0 μg/mL) is on record as 9929; in experiment [6] (3.0 μg/mL) it was 13005; in experiment [6] (10.0 μg/mL) it was 14302. Moreover, the “Ratio (Avg vs 0 conc)” value in experiment [3] (0.03 μM) was determined as 1; in experiment [3] (0.1 μM), 1; in experiment [3] (0.3 μM) it was 1; in experiment [3] (1 μM), 1; in experiment [4] (0.03 μM) it was 1; in experiment [4] (0.1 μM), 2. For the same molecule, the “Ratio (Avg vs 0 conc)” value in experiment [4] (0.3 μM) is 3; in experiment [4] (1 μM) it was 4; in experiment [5] (setting [7]), 4; in experiment [5] (setting [8]), 3; in experiment [5] (setting [9]), 3; in experiment [6] (0.3 μg/mL), 1.2. Also, the “Ratio (Avg vs 0 conc)” value in experiment [6] (1.0 μg/mL) is given as 1.5; in experiment [6] (3.0 μg/mL), 1.9; in experiment [6] (10.0 μg/mL), 2.1. Besides, the “effect of incubation with RU486 on the EFC response (in words)” value in experiment [5] (10 μM RU486 pre-incubation for one hour) was “not blocked by the incubation with RU486”. In addition, the “increase in EFC activity” value in experiment [6] (overnight incubation) was roughly 2.1 fold.
